# Reference: the supplement of paper PMC11208160
# Test: recombinant barcode read abundance after kanamycin selection (control-corrected) (log10(CPM+1)); higher = more efficient recombination; sequences stand for … in AGTGCAGAGAAAATCGGCCAGTTTTCTCTGCCTGCAGTCCGCATGCCGT…AGATTTATGCAGCGGACTGCCTTTCTCCCAAAGTGATAAACCGGACAGTATCATGGACCGGTTTTCCCGGTAATCCGTATTTGCAAGGTTGGTTTCACT; site = the 11-nt target
# Procedure, shortened: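 A promoter, a target, a barcode and the first 104 bridge RNA bases under J23119 made up each oligo. Oligos were Gibson-cloned into a vector bearing the other 73 bp and a T7-inducible recombinase, then co-electroporated into E. coli with a donor plasmid and plated in duplicate on chloramphenicol/ampicillin LB agar (control) or chloramphenicol/ampicillin/kanamycin with 0.1 mM IPTG. Recombination efficiency is the averaged, control-corrected counts per million of recombinant-junction barcodes. Reported values are log10(CPM+1).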
# 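Also: IS621 recombinase and bridge RNA in Escherichia coli cells.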
row,Sequence,recombinant barcode read abundance (log10)
1,TGGACTTCTTGGGTTCTAACCTGTTGCTG (site TGGACTTCTGA),0.215
2,TGGAGCCCTTGGGTTCTAACCTGTTGCAG (site TGGAGCCCTAT),0.13
3,TGGAGCCCTTGGGTTCTAACCTGTTGCAG (site TGGAGCCCTCT),0.484
4,TGGAGCCCTTGGGTTCTAACCTGTTGCAG (site TGGAGCCCTGT),0.336
5,TGGAGCCCTTGGGTTCTAACCTGTTGCAG (site TGGAGCCCTTT),0.0206
6,TGGAGTACTTGGGTTCTAACCTGTTGCCT (site TGGAGTACTAG),0.874
7,TGGAGTACTTGGGTTCTAACCTGTTGCCT (site TGGCGTACTAG),0.0846
8,TGGAGTACTTGGGTTCTAACCTGTTGCCT (site TGGGGTACTAG),0.146
9,TGGAGTACTTGGGTTCTAACCTGTTGCCT (site TGGTGTACTAG),0
10,TGGAGTCCTTGGGTTCTAACCTGTTGCCT (site TGGAGTCCTAG),1.11
11,TGGAGTCCTTGGGTTCTAACCTGTTGCCT (site TGGCGTCCTAG),0.0977
12,TGGAGTCCTTGGGTTCTAACCTGTTGCCT (site TGGGGTCCTAG),0.548
13,TGGAGTCCTTGGGTTCTAACCTGTTGCCT (site TGGTGTCCTAG),0.0821
14,TGGATGGCTTGGGTTCTAACCTGTTGCCT (site GGGATGGCTAG),0.149
15,TGGATGGCTTGGGTTCTAACCTGTTGCCT (site TGGATGGCTAG),0.17
16,TGGCAGGCTTGGGTTCTAACCTGTTGCCT (site TGGCAGACTAG),0.0119
17,TGGCAGGCTTGGGTTCTAACCTGTTGCCT (site TGGCAGCCTAG),0.00869
18,TGGCAGGCTTGGGTTCTAACCTGTTGCCT (site TGGCAGGCTAG),0.64
19,TGGCAGGCTTGGGTTCTAACCTGTTGCCT (site TGGCAGTCTAG),0.0352
20,TGGCAGTCTTGGGTTCTAACCTGTTGCCT (site TGGCAGACTAG),0.207
21,TGGCAGTCTTGGGTTCTAACCTGTTGCCT (site TGGCAGCCTAG),0.0447
22,TGGCAGTCTTGGGTTCTAACCTGTTGCCT (site TGGCAGGCTAG),0.272
23,TGGCAGTCTTGGGTTCTAACCTGTTGCCT (site TGGCAGTCTAG),0.413
24,TGGCATCCTTGGGTTCTAACCTGTTGCGT (site AACAGGGCTCG),0.0723
25,TGGCATCCTTGGGTTCTAACCTGTTGCGT (site TGGCATCCTAC),2.53
26,TGGCCACCTTGGGTTCTAACCTGTTGCCT (site CGGCCACCTAG),0.115

row,Sequence,recombinant barcode read abundance (log10)
1,TGGCCACCTTGGGTTCTAACCTGTTGCCT (site TGGCCACCTAG),1.6
2,TGGCCCTCTTGGGTTCTAACCTGTTGCTT (site TGGCCCTCTAA),1.63
3,TGGCCCTCTTGGGTTCTAACCTGTTGCTT (site TGGCCCTCTCA),0.293
4,TGGCCCTCTTGGGTTCTAACCTGTTGCTT (site TGGCCCTCTGA),0.52
5,TGGCCCTCTTGGGTTCTAACCTGTTGCTT (site TGGCCCTCTTA),0.056
6,TGGCCGACTTGGGTTCTAACCTGTTGCAC (site TCGCAGACTGT),0.0415
7,TGGCCGACTTGGGTTCTAACCTGTTGCAC (site TGGCCGACTGT),1.65
8,TGGCCTGCTTGGGTTCTAACCTGTTGCCT (site TGGCCTGCTAG),0.868
9,TGGCCTGCTTGGGTTCTAACCTGTTGCCT (site TGGCGAGCTAG),0.176
10,TGGCTAGCTTGGGTTCTAACCTGTTGCAC (site CATTCGCCTAC),0.0401
11,TGGCTAGCTTGGGTTCTAACCTGTTGCAC (site TGGCTAGCTGT),1.77
12,TGGGACACTTGGGTTCTAACCTGTTGCCG (site AGGGACTCTCG),0.403
13,TGGGACACTTGGGTTCTAACCTGTTGCCG (site TGGGACACTCG),2.48
14,TGGGTCACTTGGGTTCTAACCTGTTGCTA (site GTTTAATCTAT),0.0621
15,TGGGTCACTTGGGTTCTAACCTGTTGCTA (site TGGGTCACTTA),2.07
16,TGGGTCCCTTGGGTTCTAACCTGTTGCGA (site AAATGTACTAG),0.252
17,TGGGTCCCTTGGGTTCTAACCTGTTGCGA (site TGGGTCCCTTC),3
18,TGGTATCCTTGGGTTCTAACCTGTTGCCT (site TGGTATACTAG),0.15
19,TGGTATCCTTGGGTTCTAACCTGTTGCCT (site TGGTATCCTAG),0.954
20,TGGTATCCTTGGGTTCTAACCTGTTGCCT (site TGGTATGCTAG),0.396
21,TGGTATCCTTGGGTTCTAACCTGTTGCCT (site TGGTATTCTAG),0.358
22,TGGTCGGCTTGGGTTCTAACCTGTTGCAC (site TAGTCAGCTGT),0.0913
23,TGGTCGGCTTGGGTTCTAACCTGTTGCAC (site TGGTCGGCTGT),0.385
24,TGGTGCGCTTGGGTTCTAACCTGTTGCCT (site TGGTACGCTAG),0.33
25,TGGTGCGCTTGGGTTCTAACCTGTTGCCT (site TGGTCCGCTAG),0.324
26,TGGTGCGCTTGGGTTCTAACCTGTTGCCT (site TGGTGCGCTAG),1.21

row,Sequence,recombinant barcode read abundance (log10)
1,TGGTGCGCTTGGGTTCTAACCTGTTGCCT (site TGGTTCGCTAG),0.0427
2,TGGTGTCCTTGGGTTCTAACCTGTTGCCA (site TCGAGTCCTTG),0.0738
3,TGGTGTCCTTGGGTTCTAACCTGTTGCCA (site TGGTGTCCTTG),0.473
4,TGGTGTCCTTGGGTTCTAACCTGTTGCCT (site TGGAGTCCTAG),0.32
5,TGGTGTCCTTGGGTTCTAACCTGTTGCCT (site TGGCGTCCTAG),0.279
6,TGGTGTCCTTGGGTTCTAACCTGTTGCCT (site TGGGGTCCTAG),0.158
7,TGGTGTCCTTGGGTTCTAACCTGTTGCCT (site TGGTGTCCTAG),1.58
8,TGGTTACCTTGGGTTCTAACCTGTTGCGG (site CACACGACTAA),0.0374
9,TGGTTACCTTGGGTTCTAACCTGTTGCGG (site TGGTTACCTCC),1.49
10,TGGTTGTCTTGGGTTCTAACCTGTTGCCT (site TGGCTGTCTAG),0.522
11,TGGTTGTCTTGGGTTCTAACCTGTTGCCT (site TGGTTGTCTAG),1.09
12,TGTACGACTTGGGTTCTAACCTGTTGCCT (site TGTACGACTAG),0.146
13,TGTACGACTTGGGTTCTAACCTGTTGCCT (site TGTACGTCTAA),0.0793
14,TGTACGACTTGGGTTCTAACCTGTTGCGG (site GAGTGTTCTAA),0.0347
15,TGTACGACTTGGGTTCTAACCTGTTGCGG (site TGTACGACTCC),0.7
16,TGTAGTACTTGGGTTCTAACCTGTTGCCT (site TGGAGTACTAA),0.0714
17,TGTAGTACTTGGGTTCTAACCTGTTGCCT (site TGTAGTACTAG),0.229
18,TGTATGACTTGGGTTCTAACCTGTTGCCT (site AGTATGACTAG),0.65
19,TGTATGACTTGGGTTCTAACCTGTTGCCT (site CGTATGACTAG),0.0259
20,TGTATGACTTGGGTTCTAACCTGTTGCCT (site GGTATGACTAG),0.263
21,TGTATGACTTGGGTTCTAACCTGTTGCCT (site TGTATGACTAG),0.46
22,TGTATGTCTTGGGTTCTAACCTGTTGCCT (site AGTATGTCTAG),0.0212
23,TGTATGTCTTGGGTTCTAACCTGTTGCCT (site CGTATGTCTAG),0.529
24,TGTATGTCTTGGGTTCTAACCTGTTGCCT (site GGTATGTCTAG),0.402
25,TGTATGTCTTGGGTTCTAACCTGTTGCCT (site TGTATGTCTAG),0.0364
